Assay results from patent publication US20260062394A1, “PROCESSES FOR PREPARING OXAZOLIDINONE COMPOUNDS” (Merck Sharp & Dohme LLC, priority 2022, published 2026).

Assay: relative stability and turnover of the crystalline forms
Assay type: physicochemical
Conditions: for thermodynamic stability of the crystalline form: solid form, Form II statement applies to the 5-70° C. range
Excerpt: Alternatively, Form I can also be produced by solvent/anti solvent crystallizations where the solvent is (but limited not) DMSO or acetone and the antisolvent is (but not limited to) water, hexanes or heptanes. Form I can also be produced by slow evaporation of clear solutions of crude Example 1 in volatile solvents where the volatile solvent is (but not limited to) dichloromethane, acetone, or acetonitrile. Form I was characterized using PXRD, DSC, TGA and SCXRD.
Form II can be produced by recrystallization of Form I in a variety of organic solvents or mixtures thereof where the solvent(s) is (are) (but not limited to) ethyl acetate, isopropanol, acetone, dichloromethane, acetonitrile, tetrahydrofuran, water, ethanol, 2-methyl tetrahydrofuran, toluene, methanol, dimethyl formamide or cyclopentyl methyl ether. Form II was characterized using PXRD, DSC and TGA.
Type C can be produced by recrystallization of either Form I, Form II or Form III in solvent/antisolvent systems where the solvent is (but not limited to) acetone or dichloromethane and the antisolvent is (but not limited to) n-hexane or n-heptane.
Form III was produced by recrystallization of Type C in the solid state at 150° C. and under a N2 flow. Form III can also be formed in some instances from solution in acetone/n-heptane crystallizations. […] Form III was characterized using PXRD, DSC, TGA and SCXRD.

lifetime in solution before turnover into a more thermodynamically stable phase (in solution) | Structure (SMILES) | thermodynamic stability of the crystalline form
a few hours | COC(=O)NC[C@H]1CN(c2cc(F)c(N3CCS(=O)(=O)CC3)c(F)c2)C(=O)O1 [Type C, methyl ({(5S)-3-[4-(1,1-dioxo-1λ^6-thiomorpholin-4-yl)-3,5-difluorophenyl]-2-oxo-1,3-oxazolidin-5-yl}methyl)carbamate] | highly metastable
 | COC(=O)NC[C@H]1CN(c2cc(F)c(N3CCS(=O)(=O)CC3)c(F)c2)C(=O)O1 [Form III, methyl ({(5S)-3-[4-(1,1-dioxo-1λ^6-thiomorpholin-4-yl)-3,5-difluorophenyl]-2-oxo-1,3-oxazolidin-5-yl}methyl)carbamate] | Quick turnovers to more thermodynamically stable phases Form I or Form II are readily observed within minutes to hours
 | COC(=O)NC[C@H]1CN(c2cc(F)c(N3CCS(=O)(=O)CC3)c(F)c2)C(=O)O1 [Form I, methyl({(5S)-3-[4-(1,1-dioxo-1λ^6-thiomorpholin-4-yl)-3,5-difluorophenyl]-2-oxo-1,3-oxazolidin-5-yl}methyl)carbamate] | kinetic phase and will recrystallize into Form II with time
 | COC(=O)NC[C@H]1CN(c2cc(F)c(N3CCS(=O)(=O)CC3)c(F)c2)C(=O)O1 [Form II, methyl ({(5S)-3-[4-(1,1-dioxo-1λ^6-thiomorpholin-4-yl)-3,5-difluorophenyl]-2-oxo-1,3-oxazolidin-5-yl}methyl)carbamate] | most thermodynamically stable form in the 5-70 °C range
